Results from ChEMBL document CHEMBL1158671, “Microbial transformations of hypolipemic E-guggulsterone” (J Nat Prod, 1998).
Active and inactive are the calls of the source. No cut-off for these calls is given here.

Columns and labels:
NCI-H226 = assay: Cytotoxicity against human NCI-H226 cells; format: functional, cell-based
Shigella boydii = assay: Antibacterial activity against Shigella boydii; format: functional, organism-based
Pseudomonas aeruginosa = assay: Antibacterial activity against Pseudomonas aeruginosa; format: functional, organism-based
Escherichia coli = assay: Antibacterial activity against Escherichia coli; format: functional, organism-based
[1] = test system: Corynebacterium diphtheriae; assay: Antibacterial activity against Corynebacterium diphtheriae; format: functional, organism-based

| Structure (SMILES) | Activity (NCI-H226) | Activity (Shigella boydii) | Activity (Pseudomonas aeruginosa) | Activity (Escherichia coli) | Activity [1] |
| --- | --- | --- | --- | --- | --- |
| C/C=C1/C(=O)C[C@H]2[C@@H]3CCC4=CC(=O)CC[C@]4(C)[C@H]3CC[C@]12C | Active | inactive | inactive | inactive | inactive |
| C/C=C1/C(=O)C[C@H]2[C@@H]3[C@@H](O)CC4=CC(=O)CC[C@]4(C)[C@H]3CC[C@]12C |  | Active | Active | Active | Active |
